Assay results as given in US20250092002A1, “FLUORINATED CATIONIC LIPIDS FOR USE IN LIPID NANOPARTICLES” (Acuitas Therapeutics, Inc., priority 2021, published 2025).

Columns and labels:
[1] = Determination of pKa of formulated lipids (TNS fluorescence assay in lipid nanoparticles); assay type: physicochemical; conditions: cationic lipid formulated in lipid nanoparticles (cationic lipid/DSPC/cholesterol/PEG-lipid 47.5/10/40.7/1.8 mol %)
Protocol: As described elsewhere, the pKa of formulated cationic lipids is correlated with the effectiveness of LNPs for delivery of nucleic acids (see Jayaraman et al, Angewandte Chemie, International Edition (2012), 51(34), 8529-8533; Semple et al, Nature Biotechnology 28, 172-176 (2010)). The preferred range of pKa is ˜5 to ˜7. The pKa of each cationic lipid was determined in lipid nanoparticles using an assay based on fluorescence of 2-(p-toluidino)-6-napthalene sulfonic acid (TNS). Lipid nanoparticles comprising cationic lipid/DSPC/cholesterol/PEG-lipid (47.5/10/40.7/1.8 mol %) in PBS at a concentration of 0.4 mM total lipid were prepared using the in-line process as described in Example 1. TNS was prepared as a 100 μM stock solution in distilled water. Vesicles were diluted to 24 μM lipid in 2 mL of buffered solutions containing, 10 mM HEPES, 10 mM MES, 10 mM ammonium acetate, 130 mM NaCl, where the pH ranged from 2.5 to 11. An aliquot of the TNS solution was added to give a final concentration of 1 μM and following vortex mixing fluorescence intensity was measured at room temperature in a SLM Aminco Series 2 Luminescence Spectrophotometer using excitation and emission wavelengths of 321 nm and 445 nm. A sigmoidal best fit analysis was applied to the fluorescence data and the pKa was measured as the pH giving rise to half-maximal fluorescence intensity.

[2] = system: luciferase expression in the liver; assay: In vivo luciferase mRNA expression rodent model (liver luciferase after tail vein injection of mRNA-LNP); set-up: species or system mice; conditions: tail vein injection, liver 4 hours after administration; for Liver Luc (ng luc/g liver), determined at 0.3 mg/kg: 0.3 mg/kg (footnote *)
Protocol: Lipid nanoparticles were prepared and tested according to the general procedures described in PCT Pub. Nos. WO 2015/199952 and WO 2017/004143, the full disclosures of which are incorporated herein by reference. Briefly, cationic lipid, DSPC, cholesterol and PEG-lipid were solubilized in ethanol at a molar ratio of about 50:10:38.5:1.5 or about 47.5:10:40.7:1.8. Lipid nanoparticles (LNP) were prepared at a total lipid to mRNA weight ratio of approximately 10:1 to 40:1. The mRNA is diluted to 0.2 mg/mL in 10 to 50 mM citrate or acetate buffer, pH 4. Syringe pumps were used to mix the ethanolic lipid solution with the mRNA aqueous solution at a ratio of about 1:5 to 1:3 (vol/vol) with total flow rates above 15 mL/min. The ethanol was then removed and the external buffer replaced with PBS by dialysis. Finally, the lipid nanoparticles were filtered through a 0.2 µm pore sterile filter. Lipid nanoparticle particle size was approximately 55-95 nm diameter, and in some instances approximately 70-90 nm diameter as determined by quasi-elastic light scattering using a Malvern Zetasizer Nano ZS (Malvern, UK).
Studies were performed in 6-8 week old female C57BL/6 mice (Charles River) or 8-10 week old CD-1 (Harlan) mice (Charles River) according to guidelines established by an institutional animal care committee (ACC) and the Canadian Council on Animal Care (CCAC). Varying doses of mRNA-lipid nanoparticle were systemically administered by tail vein injection and animals euthanized at a specific time point (e.g., 4 hours) post-administration. Liver and spleen were collected in pre-weighed tubes, weights determined, immediately snap frozen in liquid nitrogen and stored at −80° C. until processing for analysis.
For liver, approximately 50 mg was dissected for analyses in a 2 mL FastPrep tubes (MP Biomedicals, Solon OH). ¼″ ceramic sphere (MP Biomedicals) is added to each tube and 500 μL of Glo Lysis Buffer—GLB (Promega, Madison WI) equilibrated to room temperature is added to liver tissue. Liver tissues were homogenized with the FastPrep24 instrument (MP Biomedicals) at 2×6.0 m/s for 15 seconds. Homogenate was incubated at room temperature for 5 minutes prior to a 1:4 dilution in GLB and assessed using SteadyGlo Luciferase assay system (Promega). Specifically, 50 μL of diluted tissue homogenate was reacted with 50 μL of SteadyGlo substrate, shaken for 10 seconds followed by 5 minute incubation and then quantitated using a CentroXS^3 LB 960 luminometer (Berthold Technologies, Germany). The amount of protein assayed was determined by using the BCA protein assay kit (Pierce, Rockford IL). Relative luminescence units (RLU) were then normalized to total μg protein assayed. To convert RLU to ng luciferase a standard curve was generated with QuantiLum Recombinant Luciferase (Promega).
The FLuc mRNA (L-6107 or L-7202) from Trilink Biotechnologies will express a luciferase protein, originally isolated from the firefly, Photimus pyralis. FLuc is commonly used in mammalian cell culture to measure both gene expression and cell viability. It emits bioluminescence in the presence of the substrate, luciferin. This capped and poly-adenylated mRNA was fully substituted with respect to uridine and/or cytidine nucleosides.
Representative compounds of the disclosure shown in Table 2 were formulated using the following molar ratio: 50% cationic lipid/10% distearoylphosphatidylcholine (DSPC)/38.5% Cholesterol/1.5% PEG lipid 2-[2-(ω-methoxy(polyethyleneglycol2000)ethoxy]-N,N-ditetradecylacetamide) or 47.5% cationic lipid/10% DSPC/40.7% Cholesterol/1.8% PEG lipid. Relative activity was determined by measuring luciferase expression in the liver 4 hours following administration via tail vein injection as described in Example 1. The activity was compared at a dose of 1.0 or 0.5 or 0.3 mg mRNA/kg and expressed as ng luciferase/g liver measured 4 hours after administration, as described in Example 1. Compound numbers in Table 2 refer to the compound numbers of Table 1. […]

Compound	pKa [1]	Liver Luc (ng luc/g liver), determined at 0.3 mg/kg [2]	Liver Luc (ng luc/g liver), determined at 1.0 mg/kg [2]
CCCCC(CC)COC(=O)CCCCCCCCC(CCCCCCCCC(=O)OCC(CC)CCC)N(CCCCN(C)C)C(=O)C(F)(F)C(F)(F)C(F)(F)C(F)(F)C(F)(F)C(F)(F)C(F)(F)F (stereo not drawn) [I-5 analogue, reference compound]	6.86	666 ± 589 ng luc/g liver	1338 ± 798 ng luc/g liver
CCCCCCCC(=O)N(C(=O)CCCCN(C)C)C(CCCCCC(=O)OCC(CCCC)CCCCC)CCCCCC(=O)OCC(CCCC)CCCCCC (stereo not drawn) [I-11 analogue, reference compound]	7.04	1626 ± 472 ng luc/g liver	8102 ± 4319 ng luc/g liver
